Data reported in patent US20220056043A1, “NITROGEN-CONTAINING FUSED CYCLIC COMPOUND, PREPARATION METHOD THEREFOR AND USE THEREOF” (SICHUAN KELUN-BIOTECH BIOPHARMACEUTICAL CO., LTD., priority 2019, published 2022).

What was measured:
hNLRP3 inflammasome = molecular target: T1, hNLRP3 inflammasome (Homo sapiens, UniProt Q96P20); experiment: Agonistic effect on the expression of IL-1β in THP-1 cells after PMA-induced differentiation (HTRF); type: cell-based; details: IL-1β level, PMA-differentiated THP-1 cells, 6 hours
T1 construct: endogenous in cells; host or cells: THP-1 cells, PMA-differentiated
Summary of the method: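 THP-1 cells differentiated with 1 μM PMA for 24 h, then replated at 1×10^5 cells/well in RPMI 1640 with 2% FBS. Compounds added for 6 h at 37 °C, 5% CO2. Supernatant IL-1β measured by HTRF; EC50 from four-parameter variable-slope fit.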

hERG potassium channel [1] = molecular target: T2, hERG potassium channel (Homo sapiens, UniProt Q12809)
hERG potassium channel [2] = molecular target: T2, hERG potassium channel; experiment: in vitro
hERG potassium channel [3] = molecular target: T2, hERG potassium channel; experiment: cell-based
CYP1A2 = molecular target: T3, CYP1A2 (Homo sapiens, UniProt P05177); experiment: CYP enzyme inhibition test, P450-Glo CYP1A2 Screening System; type: in vitro ADME; details: for inhibitory effect on CYP1A2: conclusion in words
T3 construct: purchased
T3 sequence (P05177 1-516): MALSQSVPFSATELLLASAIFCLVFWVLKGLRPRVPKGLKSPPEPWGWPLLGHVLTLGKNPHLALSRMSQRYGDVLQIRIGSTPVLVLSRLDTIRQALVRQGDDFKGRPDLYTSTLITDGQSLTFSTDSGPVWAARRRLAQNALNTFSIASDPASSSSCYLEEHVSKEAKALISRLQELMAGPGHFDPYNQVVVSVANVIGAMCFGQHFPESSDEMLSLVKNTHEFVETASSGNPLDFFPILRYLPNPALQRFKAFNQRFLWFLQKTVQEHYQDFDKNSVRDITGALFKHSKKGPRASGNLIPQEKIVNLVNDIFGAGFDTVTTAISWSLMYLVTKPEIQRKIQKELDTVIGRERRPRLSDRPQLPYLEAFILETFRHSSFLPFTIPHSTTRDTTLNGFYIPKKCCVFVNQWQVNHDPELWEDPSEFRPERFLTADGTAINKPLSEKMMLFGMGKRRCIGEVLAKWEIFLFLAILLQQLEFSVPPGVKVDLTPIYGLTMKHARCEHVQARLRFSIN
Description: (§1) Experimental Example 6: CYP Enzyme Inhibition Test CYP450 is the most important enzyme system in drug metabolism. The enzymes involved in metabolism interact with drugs, and the most important ones are CYP1A2, CYP2D6 and CYP3A4. P450-Glo™ CYP1A2 Screening System, Vivid® CYP2D6 Cyan Screening Kit and Vivid® CYP3A4 Red Screening Kit were used in this test, and the inhibitory effects of the compounds on CYP1A2, CYP2D6 and CYP3A4 were determined according to the instructions of the kit.

CYP2D6 = molecular target: T4, CYP2D6 (Homo sapiens, UniProt P10635); experiment: CYP enzyme inhibition test, Vivid CYP2D6 Cyan Screening Kit; type: in vitro ADME; details: for inhibitory effect on CYP2D6: conclusion in words
T4 construct: purchased
Description: as §1

CYP3A4 = molecular target: T5, CYP3A4 (Homo sapiens, UniProt P08684); experiment: CYP enzyme inhibition test, Vivid CYP3A4 Red Screening Kit; type: in vitro ADME; details: for inhibitory effect on CYP3A4: conclusion in words
T5 construct: purchased
Description: as §1

T2 sequence (Q12809 whole entry): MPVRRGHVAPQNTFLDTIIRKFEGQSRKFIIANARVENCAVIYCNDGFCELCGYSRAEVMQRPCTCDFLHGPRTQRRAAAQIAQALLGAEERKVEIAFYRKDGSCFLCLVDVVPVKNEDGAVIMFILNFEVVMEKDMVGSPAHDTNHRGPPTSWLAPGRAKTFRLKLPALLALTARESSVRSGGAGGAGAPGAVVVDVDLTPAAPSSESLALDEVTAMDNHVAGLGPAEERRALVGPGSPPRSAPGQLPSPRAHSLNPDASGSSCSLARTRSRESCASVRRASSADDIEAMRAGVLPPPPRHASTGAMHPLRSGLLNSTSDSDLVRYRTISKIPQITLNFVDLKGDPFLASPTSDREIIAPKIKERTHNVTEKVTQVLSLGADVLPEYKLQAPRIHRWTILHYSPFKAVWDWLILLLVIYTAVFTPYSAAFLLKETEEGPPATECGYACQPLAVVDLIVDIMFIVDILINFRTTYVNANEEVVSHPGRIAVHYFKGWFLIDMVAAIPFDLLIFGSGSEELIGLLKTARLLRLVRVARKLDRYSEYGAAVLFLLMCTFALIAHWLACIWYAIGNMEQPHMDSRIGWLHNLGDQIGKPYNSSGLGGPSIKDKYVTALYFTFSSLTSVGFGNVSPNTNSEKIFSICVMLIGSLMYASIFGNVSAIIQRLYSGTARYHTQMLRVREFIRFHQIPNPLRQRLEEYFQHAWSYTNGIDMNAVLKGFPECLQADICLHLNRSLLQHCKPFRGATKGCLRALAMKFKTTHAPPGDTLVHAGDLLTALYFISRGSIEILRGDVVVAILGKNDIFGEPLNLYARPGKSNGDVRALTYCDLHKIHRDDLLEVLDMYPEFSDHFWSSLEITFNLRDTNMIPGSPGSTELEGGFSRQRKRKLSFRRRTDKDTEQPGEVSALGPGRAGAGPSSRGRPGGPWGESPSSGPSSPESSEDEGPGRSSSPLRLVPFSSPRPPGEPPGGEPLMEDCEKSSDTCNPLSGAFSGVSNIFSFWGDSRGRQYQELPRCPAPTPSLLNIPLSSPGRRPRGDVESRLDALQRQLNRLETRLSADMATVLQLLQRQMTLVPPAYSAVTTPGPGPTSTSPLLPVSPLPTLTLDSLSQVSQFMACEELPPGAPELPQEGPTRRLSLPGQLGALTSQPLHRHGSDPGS
T5 sequence (P08684 whole entry): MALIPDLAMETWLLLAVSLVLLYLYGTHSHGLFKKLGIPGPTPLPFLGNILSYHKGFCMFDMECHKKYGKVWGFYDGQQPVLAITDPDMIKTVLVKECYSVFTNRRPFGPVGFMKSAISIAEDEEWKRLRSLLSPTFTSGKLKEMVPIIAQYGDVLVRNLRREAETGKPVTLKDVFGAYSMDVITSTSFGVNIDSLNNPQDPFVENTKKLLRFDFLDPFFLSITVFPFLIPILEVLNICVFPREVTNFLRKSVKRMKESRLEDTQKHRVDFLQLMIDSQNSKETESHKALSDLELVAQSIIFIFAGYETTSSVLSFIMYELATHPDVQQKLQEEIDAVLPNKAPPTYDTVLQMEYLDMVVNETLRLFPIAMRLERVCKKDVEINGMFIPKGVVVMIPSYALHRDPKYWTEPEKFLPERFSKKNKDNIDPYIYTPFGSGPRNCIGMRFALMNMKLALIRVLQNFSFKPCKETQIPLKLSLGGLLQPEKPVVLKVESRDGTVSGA
T1 sequence (Q96P20 whole entry): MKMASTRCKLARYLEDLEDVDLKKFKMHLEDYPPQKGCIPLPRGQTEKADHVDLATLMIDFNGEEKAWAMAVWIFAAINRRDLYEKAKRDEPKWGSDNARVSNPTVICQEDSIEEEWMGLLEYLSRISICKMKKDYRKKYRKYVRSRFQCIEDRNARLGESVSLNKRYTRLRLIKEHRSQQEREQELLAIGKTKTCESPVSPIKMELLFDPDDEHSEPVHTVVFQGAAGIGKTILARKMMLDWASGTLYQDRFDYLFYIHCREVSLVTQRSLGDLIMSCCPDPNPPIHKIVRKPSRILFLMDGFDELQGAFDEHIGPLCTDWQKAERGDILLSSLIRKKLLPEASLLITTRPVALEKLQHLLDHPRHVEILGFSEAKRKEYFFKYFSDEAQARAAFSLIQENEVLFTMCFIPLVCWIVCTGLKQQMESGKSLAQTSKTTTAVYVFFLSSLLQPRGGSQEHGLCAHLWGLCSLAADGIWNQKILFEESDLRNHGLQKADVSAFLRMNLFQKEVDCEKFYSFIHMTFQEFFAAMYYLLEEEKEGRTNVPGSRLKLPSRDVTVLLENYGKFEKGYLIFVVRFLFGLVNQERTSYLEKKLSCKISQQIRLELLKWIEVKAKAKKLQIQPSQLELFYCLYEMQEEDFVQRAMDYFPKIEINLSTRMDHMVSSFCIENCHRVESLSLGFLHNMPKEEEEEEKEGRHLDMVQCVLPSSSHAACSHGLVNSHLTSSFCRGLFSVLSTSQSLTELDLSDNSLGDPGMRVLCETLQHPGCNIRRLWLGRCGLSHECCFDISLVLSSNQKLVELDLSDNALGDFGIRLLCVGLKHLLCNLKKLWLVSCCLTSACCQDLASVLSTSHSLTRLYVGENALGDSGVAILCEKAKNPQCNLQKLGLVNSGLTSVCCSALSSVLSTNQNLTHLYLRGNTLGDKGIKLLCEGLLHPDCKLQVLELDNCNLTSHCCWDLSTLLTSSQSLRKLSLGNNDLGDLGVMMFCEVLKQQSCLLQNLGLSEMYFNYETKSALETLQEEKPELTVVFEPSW
T4 sequence (P10635 whole entry): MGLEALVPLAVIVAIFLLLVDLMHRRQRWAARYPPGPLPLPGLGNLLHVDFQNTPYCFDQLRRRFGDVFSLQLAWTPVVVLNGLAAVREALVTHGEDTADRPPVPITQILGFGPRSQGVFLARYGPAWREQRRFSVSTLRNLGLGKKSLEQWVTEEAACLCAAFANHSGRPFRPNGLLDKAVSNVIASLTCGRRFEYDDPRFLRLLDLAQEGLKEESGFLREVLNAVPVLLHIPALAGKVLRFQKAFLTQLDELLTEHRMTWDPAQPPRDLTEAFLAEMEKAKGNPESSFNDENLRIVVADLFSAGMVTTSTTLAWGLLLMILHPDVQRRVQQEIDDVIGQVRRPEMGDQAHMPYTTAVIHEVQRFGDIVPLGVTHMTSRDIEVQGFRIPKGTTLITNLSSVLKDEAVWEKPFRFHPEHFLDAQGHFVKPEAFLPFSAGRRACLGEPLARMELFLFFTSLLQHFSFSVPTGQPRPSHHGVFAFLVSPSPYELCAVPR

Compound	EC50 (hNLRP3 inflammasome)	also measured
CC(C)(O)CNc1cc(N)nc2cc(-c3ccn[nH]3)sc12 [Compound 28, (1-(5-amino-2-(1H-pyrazol-5-yl)thieno[3,2-b]pyridin-7-yl)amino)-2-methyl-2-propanol]	0.54 µM	–
C[C@@H](O)CNc1cc(N)nc2cc(-c3ccn[nH]3)sc12 [Compound 29]	0.16 µM	–
Nc1cc(N[C@@H]2CC[C@@H](O)C2)c2sc(-c3ccn[nH]3)cc2n1 [Compound 30, (1R,3R)-3-((5-amino-2-(1H-pyrazol-5-yl)thieno[3,2-b]pyridin-7-yl)amino)cyclopentanol]	0.03 µM	inhibitory effect on hERG (hERG potassium channel [1]): no apparent inhibitory effect; inhibition at 10 μM (hERG potassium channel [2]): 1.91 ± 1.4%; IC50 (hERG potassium channel [3]): > 10000 nM
Nc1cc(NC(CCO)c2ccccc2)c2sc(-c3ccn[nH]3)cc2n1 (centres unmarked) [Compound 123, 3-((5-amino-2-(1H-pyrazol-5-yl)thieno[3,2-b]pyridin-7-yl)amino)-3-phenyl-1-propanol]	0.1 µM	–
C[C@@H]1CN(CCNc2cc(N)nc3cc(-c4ccn[nH]4)sc23)C[C@@H](C)O1 [Compound 124, N^7-(2-((2R,6R)-2,6-dimethylmorpholino)ethyl)-2-(1H-pyrazol-5-yl)thieno[3,2-b]pyridine-5,7-diamine]	0.05 µM	IC50 (CYP1A2): > 10 µM; inhibitory effect on CYP1A2 (CYP1A2): no apparent inhibitory effects; IC50 (CYP2D6): > 10 µM; inhibitory effect on CYP2D6 (CYP2D6): no apparent inhibitory effects; IC50 (CYP3A4): > 10 µM; inhibitory effect on CYP3A4 (CYP3A4): no apparent inhibitory effects
C[C@@H](CCO)Nc1cc(N)nc2cc(-c3ccn[nH]3)sc12 [Compound 125, (S)-3-((5-amino-2-(1H-pyrazol-5-yl)thieno[3,2-b]pyridin-7-yl)amino)butanol]	0.03 µM	IC50 (CYP1A2): > 10 µM; inhibitory effect on CYP1A2 (CYP1A2): no apparent inhibitory effects; IC50 (CYP2D6): > 10 µM; inhibitory effect on CYP2D6 (CYP2D6): no apparent inhibitory effects; IC50 (CYP3A4): > 10 µM; inhibitory effect on CYP3A4 (CYP3A4): no apparent inhibitory effects
Nc1cc(NCC2CCC2)c2sc(-c3ccn[nH]3)cc2n1 [Compound 126, N^7-(cyclobutylmethyl)-2-(1H-pyrazol-5-yl)thieno[3,2-b]pyridine-5,7-diamine]	0.35 µM	–
CN(CCCO)c1cc(N)nc2cc(-c3ccn[nH]3)sc12 [Compound 127, 3-((5-amino-2-(1H-pyrazol-5-yl)thieno[3,2-b]pyridin-7-yl)(methyl)amino)-1-propanol]	0.11 µM	–
C[C@H]1CC[C@H](Nc2cc(N)nc3cc(-c4ccn[nH]4)sc23)CC1 [Compound 128, N^7-((1R,4R)-4-methylcyclohexyl)-2-(1H-pyrazol-5-yl)thieno[3,2-b]pyridine-5,7-diamine]	0.11 µM	–
C[C@]1(O)C[C@@H](Nc2cc(N)nc3cc(-c4ccn[nH]4)sc23)C1 [Compound 129, (1s,3s)-3-((5-amino-2-(1H-pyrazol-5-yl)thieno[3,2-b]pyridin-7-yl)amino)-1-methylcyclobutanol]	0.03 µM	–
C[C@H](Nc1cc(N)nc2cc(-c3ccn[nH]3)sc12)c1cccc(C(F)(F)F)c1 [Compound 131, (S)-2-(1H-pyrazol-5-yl)-N^7-(1-(3-(trifluoromethyl)phenyl)ethyl)thieno[3,2-b]pyridine-5,7-diamine]	0.06 µM	–
CC[C@@H](CO)Nc1cc(N)nc2cc(-c3ccn[nH]3)sc12 [Compound 132, (S)-2-((5-amino-2-(1H-pyrazol-5-yl)thieno[3,2-b]pyridin-7-yl)amino)-1-butanol]	3.48 µM	–
COC[C@@H](C)Nc1cc(N)nc2cc(-c3ccn[nH]3)sc12 [Compound 133, (R)—N^7-(1-methoxyprop-2-yl)-2-(1H-pyrazol-5-yl)thieno[3,2-b]pyridine-5,7-diamine]	0.58 µM	–
Cc1cccnc1CNc1cc(N)nc2cc(-c3ccn[nH]3)sc12 [Compound 134, N^7-((3-methylpyridin-2-yl)methyl)-2-(1H-pyrazol-5-yl)thieno[3,2-b]pyridine-5,7-diamine]	0.03 µM	–
Nc1cc(NCCN2CCCC2=O)c2sc(-c3ccn[nH]3)cc2n1 [Compound 135, 1-(2-((5-amino-2-(1H-pyrazol-5-yl)thieno[3,2-b]pyridin-7-yl)amino)ethyl)pyrrolidin-2-one]	0.32 µM	–
Nc1cc(NCC(CO)CO)c2sc(-c3ccn[nH]3)cc2n1 [Compound 136]	0.05 µM	–

Compound	EC50 (hNLRP3 inflammasome)	also measured
CNC(=O)CNc1cc(N)nc2cc(-c3ccn[nH]3)sc12 [Compound 137, 2-((5-amino-2-(1H-pyrazol-5-yl)thieno[3,2-b]pyridin-7-yl)amino)-N-methylacetamide]	0.95 µM	–
Nc1cc(NCC(=O)NC2CC2)c2sc(-c3ccn[nH]3)cc2n1 [Compound 138, 2-((5-amino-2-(1H-pyrazol-5-yl)thieno[3,2-b]pyridin-7-yl)amino)-N-cyclopropylacetamide]	0.2 µM	–
CN(CCO)c1cc(N)nc2cc(-c3ccn[nH]3)sc12 [Compound 139, 2-((5-amino-2-(1H-pyrazol-5-yl)thieno[3,2-b]pyridin-7-yl)(methyl)amino)ethanol]	0.07 µM	–
CCN(CCNc1cc(N)nc2cc(-c3ccn[nH]3)sc12)C(=O)Cc1cccc(C)c1 [Compound 140, N-(2-((5-amino-2-(1H-pyrazol-5-yl)thieno[3,2-b]pyridin-7-yl)amino)ethyl)-N-ethyl-2-(m-tolyl)acetamide]	0.5 µM	–
CC(C)CNc1cc(N)nc2cc(-c3ccn[nH]3)sc12 [Compound 141, N^7-isobutyl-2-(1H-pyrazol-5-yl)thieno[3,2-b]pyridin-5,7-diamine]	0.03 µM	–
Nc1cc(N[C@H]2[C@@H]3CNC[C@@H]32)c2sc(-c3ccn[nH]3)cc2n1 [Compound 142, N^7-((1R,5S,6S)-3-azabicyclo[3.1.0]hex-6-yl)-2-(1H-pyrazol-5-yl)thieno[3,2-b]pyridin-5,7-diamine]	0.14 µM	–
Nc1cc(NC2CCC(F)(F)CC2)c2sc(-c3ccn[nH]3)cc2n1 [Compound 143, N^7-(4,4-difluorocyclohexyl)-2-(1H-pyrazol-5-yl)thieno[3,2-b]pyridin-5,7-diamine]	0.08 µM	–
CC(C)C[C@H](CO)Nc1cc(N)nc2cc(-c3ccn[nH]3)sc12 [Compound 144, (R)-2-((5-amino-2-(1H-pyrazol-5-yl)thieno[3,2-b]pyridin-7-yl)amino)-4-methyl-1-pentanol]	0.38 µM	–
CCC(=O)N(CC)CCNc1cc(N)nc2cc(-c3ccn[nH]3)sc12 [Compound 145, N-(2-((5-amino-2-(1H-pyrazol-5-yl)thieno[3,2-b]pyridin-7-yl)amino)ethyl)-N-ethylpropionamide]	0.31 µM	–
CCN(CCNc1cc(N)nc2cc(-c3ccn[nH]3)sc12)C(=O)C1CC1 [Compound 146, N-(2-((5-amino-2-(1H-pyrazol-5-yl)thieno[3,2-b]pyridin-7-yl)amino)ethyl)-N-ethylcyclopropyl formamide]	0.29 µM	–
Nc1cc(N[C@H]2CC[C@H](O)CC2)c2sc(-c3ccn[nH]3)cc2n1 [Compound 147, (1R,4R)-4-((5-amino-2-(1H-pyrazol-5-yl)thieno[3,2-b]pyridin-7-yl)amino)cyclohexanol]	0.03 µM	–
C[C@@H]1CN(c2cc(N)nc3cc(-c4ccn[nH]4)sc23)C[C@@H](C)O1 [Compound 148, 7-((2R,6R)-2,6-dimethylmorpholino)-2-(1H-pyrazol-5-yl)thieno[3,2-b]pyridine-5-amine]	0.008 µM	–
Cc1noc(C)c1CNc1cc(N)nc2cc(-c3ccn[nH]3)sc12 [Compound 149, N^7-((3,5-dimethylisoxazol-4-yl)methyl)-2-(1H-pyrazol-5-yl)thieno[3,2-b]pyridine-5,7-diamine]	0.04 µM	–
Nc1cc(NCCCN2CCCC2=O)c2sc(-c3ccn[nH]3)cc2n1 [Compound 150]	0.16 µM	–
Cc1c(-c2cc[nH]n2)sc2c(NCC(C)(C)CO)cc(N)nc12 [Compound 151]	3.66 µM	–
COCCNc1cc(N)nc2c(C)c(-c3cc[nH]n3)sc12 [Compound 152]	2.75 µM	–
